In PubChem BioAssay (NCI) one finds TGI data, which are given here for two compounds.

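The compound was tested at five concentrations on cells cultured in 96-well plates, with a 48-hour exposure period. The concentration for full growth arrest is given as TGI.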

Test systems include A549 NSCLC; EKVX NSCLC; KM20L2 colon; LXFL 529 NSCLC; OVCAR-8 ovarian; SF-268 CNS; SK-OV-3 ovarian; SN12C renal; SNB-75 CNS.
Common to all, as to experiment: growth of human tumour cells (NCI), 48 h

For the compound `Cc1ccccc1C(C#N)C(=O)C(=O)Nc1nc([N+](=O)[O-])cs1` (stereo not drawn), the TGI with A549 NSCLC, in the experiment on EKVX NSCLC, in the experiment on KM20L2 colon, in the experiment with LXFL 529 NSCLC, with OVCAR-8 ovarian and in the experiment with SF-268 CNS was greater than 100 µM in each case. Also, the TGI in the experiment with SK-OV-3 ovarian, in the experiment on SN12C renal and in the experiment on SNB-75 CNS was greater than 100 µM throughout.

Take `COC(=O)C(c1[nH]nc2ccccc12)C(C(=O)OC)c1[nH]nc2ccccc12` (stereo not drawn): the TGI with A549 NSCLC is greater than 100 µM; with EKVX NSCLC it was greater than 100 µM; with KM20L2 colon, greater than 100 µM; with LXFL 529 NSCLC, greater than 100 µM; with OVCAR-8 ovarian, 77.6 µM; in the experiment with SF-268 CNS, greater than 100 µM. Moreover, the TGI in the experiment with SK-OV-3 ovarian, in the experiment with SN12C renal and in the experiment on SNB-75 CNS was greater than 100 µM each time.
